Measurements from patent US7700593B2, “Imidazo- and triazolo-pyridine compounds and methods of use thereof” (Amgen Inc., priority 2006, dated 2010).

What was measured:
p38α = p38α (Homo sapiens, UniProt Q16539); assay: p38 in-vitro HTRF enzyme assay; format: biochemical; settings: IC50 value ranges
Procedure: p38 In-Vitro HTRF Enzyme Assay
The compounds of the invention can be tested for their respective affinities for the p38 protein using a conventional p38 in-vitro enzyme activity assay. For example, a P38-alpha HTRF assay may be used to measure the protein's in-vitro phosphorylation activity, and the data analyzed using time resolved fluorimetry techniques (FRET). A p38 HTRF assay is as follows. The kinase reaction buffer for p38α, p38β, p38δ and p38γ HTRF assays consists of 50 mM Tris-pH 7.5, 5 mM MgCl2, 0.1 mg/mL BSA, 100 μM Na3VO4 and 0.5 mM DTT. The HTRF detection buffer contains 100 mM HEPES-pH 7.5, 100 mM NaCl, 0.1% BSA, 0.05% Tween-20, and 10 mM EDTA. Each compound was dissolved in 100% DMSO and serially diluted (3 fold, 10 point) in a polypropylene 96-well microtiter plate (drug plate). The final starting concentration of the compound in the p38α and p38β enzymatic assays was about 1 μM. The final starting concentration of each compound in the p38δ and p38γ enzymatic assays was about 10 μM. The p38α, p38β, p38δ and p38γ kinase reactions were carried out in a polypropylene 96-well black round bottom assay plate in total volume of 30 μL kinase reaction buffer. Appropriate concentration of purified and activated enzyme (recombinant human) was mixed with indicated concentration of ATP and 100 nM GST-ATF2-Avitag, in the presence or absence (HI control) of each compound. In the absence of enzyme, the background was measured as LO control. HI controls and LO controls contained only DMSO. The reaction was allowed to incubate for 1 hour at RT. […] After 60 minutes incubation at room temperature, the assay plate was read in a Discovery Plate Reader. The wells were excited with coherent 320 nm light and the ratio of delayed ([…] post excitation) emissions at […] (native europium fluorescence) and 665 nm (europium fluorescence transferred to allophycocyanin—an index of substrate phosphorylation) was determined (Park et al, 1999). The resulting data was analyzed by taking the proportion of substrate phosphorylated in the kinase reaction in the presence of each individual compound and comparing it with that phosphorylated in the presence of DMSO vehicle alone (HI control). The data was calculated using the formula: % control (POC)=(compound−average LO)/(average HI−average LO)*100. Data (consisting of POC and inhibitor concentration in μM) was fitted to a 4-parameter equation (y=A+((B−A)/(1+((x/C)^D))), where A is the minimum y (POC) value, B is the maximum y (POC), C is the x (compound concentration) at the point of inflection and D is the slope factor, using a Levenburg-Marquardt non-linear regression algorithm. The inhibition constant (Ki) of the inhibitor was estimated from the IC50 (compound concentration at the point of inflection C) using the Cheng-Prussof equation: Ki=IC50/(1+S/Km), where S is the ATP substrate concentration, and Km is the Michaelis constant for ATP as determined experimentally. All results were expressed as the mean±the standard error of the mean. Data acquisition and non-linear regression algorithms were performed using Activity Base v5.2 and XLfit software v4.1 respectively. Additional assay information may be obtained in Park Y W, Cummings R T, Wu L, et al. Homogeneous Proximity Tyrosine Kinase Assays Scintillation Proximity Assay versus Homogeneous Time-Resolved Fluorescence. Analytical Biochemistry. 1999; 269: 94-104.

monocytes = assay: Lipopolysaccharide-activated monocyte TNF production assay (LPS induced TNF release); format: cell-based, human; settings: Homo sapiens, Monocyte; LPS induced TNF release from monocytes; read-out: LPS induced TNFa
Procedure: Lipopolysaccharide-Activated Monocyte TNF Production Assay
Test compounds were evaluated in vitro for the ability to inhibit the production of TNF by monocytes activated with bacterial lipopolysaccharide (LPS). Fresh residual source leukocytes (a byproduct of plateletpheresis) were obtained from a local blood bank, and peripheral blood mononuclear cells (PBMCs) were isolated by density gradient centrifugation on Ficol-Paque Plus (Pharmacia). PBMCs were suspended at 2×10^6/mL in DMEM supplemented to contain 2% FCS, 10 mM, 0.3 mg/mL […], 100 U/mL penicillin G and […] streptomycin sulfate (complete media). Cells were plated into Falcon flat bottom, 96 well culture plates (200 μL/well) and cultured overnight at 37° C. and 6% CO2. Non-adherent cells were removed by washing with 200 μl/well of fresh medium. Wells containing adherent cells (˜70% monocytes) were replenished with 100 μL of fresh medium.
Preparation of Test Compound Stock Solutions
Test compounds were dissolved in […]. Compound stock solutions were prepared to an initial concentration of […]. Stocks were diluted initially to […] in complete media. Nine two-fold serial dilutions of each compound were then prepared in complete medium.
Treatment of Cells with Test Compounds and Activation of TNF Production with Lipopolysaccharide
One hundred microliters of each test compound dilution were added to microtiter wells containing adherent monocytes and 100 μL complete medium. Monocytes were cultured with test compounds for 60 min at which time 25 μL of complete medium containing 30 ng/mL lipopolysaccharide from E. coli K532 were added to each well. Cells were cultured an additional 4 hrs. Culture supernatants were then removed and TNF presence in the supernatants was quantified using an ELISA.
Flat bottom, 96 well Corning High Binding ELISA plates were coated overnight (4° C.) with 150 μL/well of 3 μg/mL murine anti-human TNF-α MAb (R&D Systems #MAB210). Wells were then blocked for 1 h at room temperature with 200 μL/well of CaCl2-free ELISA buffer supplemented to contain 20 mg/mL BSA (standard ELISA buffer: […], 150 mM NaCl, 2 mM CaCl2, 0.15 mM thimerosal, pH 7.4). Plates were washed and replenished with 100 μL of test supernatants (diluted 1:3) or standards. Standards consisted of eleven 1.5-fold serial dilutions from a stock of 1 ng/mL recombinant human TNF (R&D Systems). Plates were incubated at room temperature for 1 h on orbital shaker (300 rpm), washed and replenished with 100 μL/well of 0.5 μg/mL goat anti-human TNF-α (R&D systems #AB-210-NA) biotinylated at a 4:1 ratio. Plates were incubated for 40 min, washed and replenished with 100 μL/well of alkaline phosphatase-conjugated streptavidin (Jackson ImmunoResearch #016-050-084) at 0.02 μg/mL. Plates were incubated 30 min, washed and replenished with 200 μL/well of 1 mg/mL of p-nitrophenyl phosphate.
Standard curve data were fit to a second order polynomial and unknown TNF-α concentrations determined from their OD by solving this equation for concentration. TNF concentrations were then plotted vs. test compound concentration using a second order polynomial. This equation was then used to calculate the concentration of test compounds causing a 50% reduction in TNF production.

THP1 cells = assay: Lipopolysaccharide-activated THP1 cell TNF production assay; format: cell-based, human; settings: Homo sapiens, THP-1; LPS-induced TNF-α production in THP1 cells
Procedure: Lipopolysaccharide-Activated THP1 Cell TNF Production Assay
THP1 cells are resuspended in fresh THP1 media (RPMI 1640, 10% heat-inactivated FBS, 1×PGS, 1×NEAA, plus 30 μM βME) at a concentration of 1E6/mL. One hundred microliters of cells per well are plated in a polystyrene 96-well tissue culture. One microgram per mL of bacterial LPS is prepared in THP1 media and is transferred to the wells. Test compounds are dissolved in 100% DMSO and are serially diluted 3-fold in a polypropylene 96-well microtiter plate (drug plate). HI control and LO control wells contain only DMSO. One microliter of test compound from the drug plate followed by 10 μL of LPS are transferred to the cell plate. The treated cells are induced to synthesize and secrete TNF-α at 37° C. for 3 h. Forty microliters of conditioned media are transferred to a 96-well polypropylene plate containing 110 μL of ECL buffer (50 mM Tris-HCl pH 8.0, 100 mM NaCl, 0.05% Tween 20, 0.05% NaN3 and 1% FBS) supplemented with 0.44 nM MAB610 monoclonal Ab (R&D Systems), 0.34 nM ruthenylated AF210NA polyclonal Ab (R&D Systems) and 44 μg/mL sheep anti-mouse M280 Dynabeads (Dynal). After a 2 h incubation at room temperature with shaking, the reaction is read on the ECL M8 Instrument (IGEN Inc.). A low voltage is applied to the ruthenylated TNF-α immune complexes, which in the presence of TPA (the active component in Origlo), results in a cyclical redox reaction generating light at […]. The amount of secreted TNF-α in the presence of compound compared with that in the presence of DMSO vehicle alone (HI control) is calculated using the formula: % control (POC)=(cpd−average LO)/(average HI−average LO)*100. Data (consisting of POC and inhibitor concentration in μM) is fitted to a 4-parameter equation (y=A+((B−A)/(1+((x/C)^D))), where A is the minimum y (POC) value, B is the maximum y (POC), C is the x (cpd concentration) at the point of inflection and D is the slope factor) using a Levenburg-Marquardt non-linear regression algorithm.

p38α, sequence (Q16539 whole entry): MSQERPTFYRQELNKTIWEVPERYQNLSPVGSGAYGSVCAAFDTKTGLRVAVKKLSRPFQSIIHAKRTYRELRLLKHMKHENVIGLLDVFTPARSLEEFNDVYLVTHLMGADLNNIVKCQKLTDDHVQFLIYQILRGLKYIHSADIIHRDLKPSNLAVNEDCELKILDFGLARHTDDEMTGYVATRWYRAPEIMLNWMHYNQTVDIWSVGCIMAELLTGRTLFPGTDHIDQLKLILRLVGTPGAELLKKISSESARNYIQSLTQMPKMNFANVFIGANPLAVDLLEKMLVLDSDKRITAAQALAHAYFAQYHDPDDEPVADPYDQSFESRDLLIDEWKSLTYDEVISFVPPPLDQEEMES

Cc1ccc(C(=O)Nc2ccnn2C)cc1-c1ccn2c(-c3cc(F)ccc3Cl)nnc2c1 [Example 47, 3-(3-(2-chloro-5-fluorophenyl)[1,2,4]triazolo[4,3-a]pyridin-7-yl)-4-methyl-N-(1-methyl-1H-pyrazol-5-yl)benzamide]
IC50 (p38α): < 25 nM
IC50 (monocytes): 25 to 100 nM
IC50 (THP1 cells): < 25 nM

Cc1ccccc1-c1nnc2cc(-c3cc(C(=O)NC4CC4)cc(F)c3C)ccn12 [Example 82, N-cyclopropyl-3-fluoro-4-methyl-5-(3-(2-methylphenyl)[1,2,4]triazolo[4,3-a]pyridin-7-yl)benzamide]
IC50 (p38α): < 25 nM
IC50 (monocytes): < 25 nM
IC50 (THP1 cells): < 25 nM

Cc1ccc(C(=O)NC2CC2)cc1-c1ccn2c(N3CCCCC3)nnc2c1 [Example 99, N-cyclopropyl-4-methyl-3-(3-(1-piperidinyl)[1,2,4]triazolo[4,3-a]pyridin-7-yl)benzamide]
IC50 (p38α): < 25 nM
IC50 (monocytes): 250 to 1000 nM
IC50 (THP1 cells): 25 to 100 nM

Cc1ccc(C(=O)NC2(C)CC2)cc1-c1ccn2c(-c3ccccc3Cl)nnc2c1 [Example 11, 3-(3-(2-chlorophenyl)[1,2,4]triazolo[4,3-a]pyridin-7-yl)-4-methyl-N-(1-methylcyclopropyl)benzamide]
IC50 (p38α): < 25 nM
IC50 (monocytes): 25 to 100 nM
IC50 (THP1 cells): 25 to 100 nM

Cc1ccc(C(=O)NC2CC2)cc1-c1ccn2c(-c3c(F)cccc3Cl)nnc2c1 [Example 63, 3-(3-(2-chloro-6-fluorophenyl)[1,2,4]triazolo[4,3-a]pyridin-7-yl)-N-cyclopropyl-4-methylbenzamide]
IC50 (p38α): < 25 nM
IC50 (monocytes): < 25 nM
IC50 (THP1 cells): < 25 nM

Cc1ccc(C(=O)Nc2ccnn2C)cc1-c1cc2nnc(-c3ccccc3Cl)n2cc1C [Example 36, 3-(3-(2-chlorophenyl)-6-methyl[1,2,4]triazolo[4,3-a]pyridin-7-yl)-4-methyl-N-(1-methyl-1H-pyrazol-5-yl)benzamide]
IC50 (p38α): < 25 nM
IC50 (monocytes): 25 to 100 nM
IC50 (THP1 cells): < 25 nM

Cc1ccc(C(=O)NC2CC2)cc1-c1ccn2c(-c3ccccc3Cl)nnc2c1C [Example 78, 3-(3-(2-chlorophenyl)-8-methyl[1,2,4]triazolo[4,3-a]pyridin-7-yl)-N-cyclopropyl-4-methylbenzamide]
IC50 (p38α): 25 to 100 nM
IC50 (monocytes): 250 to 1000 nM
IC50 (THP1 cells): 25 to 100 nM

Cc1ccc(C(N)=O)cc1-c1ccn2c(N)nnc2c1 [Example 24, 3-(3-amino[1,2,4]triazolo[4,3-a]pyridin-7-yl)-4-methylbenzamide]
IC50 (p38α): 1000 to 5000 nM
IC50 (monocytes): 1000 to 5000 nM
IC50 (THP1 cells): 1000 to 5000 nM

Cc1ccc(C(=O)NC2CC2)cc1-c1ccn2c(-c3c(F)cccc3C(F)(F)F)nnc2c1 [Example 69, N-cyclopropyl-3-(3-(2-fluoro-6-(trifluoromethyl)phenyl)[1,2,4]triazolo[4,3-a]pyridin-7-yl)-4-methylbenzamide]
IC50 (p38α): < 25 nM
IC50 (monocytes): 25 to 100 nM
IC50 (THP1 cells): < 25 nM

Cc1ccc(C(=O)NC2CC2)cc1-c1ccn2c(-c3ccccc3)nnc2c1 [Example 37, N-cyclopropyl-4-methyl-3-(3-phenyl[1,2,4]triazolo[4,3-a]pyridin-7-yl)benzamide]
IC50 (p38α): < 25 nM
IC50 (monocytes): 250 to 1000 nM
IC50 (THP1 cells): 100 to 250 nM

Cc1ccc(C(=O)NC2CC2)cc1-c1ccn2c(N3CCCC3)nnc2c1 [Example 96, N-cyclopropyl-4-methyl-3-(3-(1-pyrrolidinyl)[1,2,4]triazolo[4,3-a]pyridin-7-yl)benzamide]
IC50 (p38α): < 25 nM
IC50 (monocytes): 250 to 1000 nM
IC50 (THP1 cells): 25 to 100 nM

Cc1ccc(C(=O)NC2CC2)cc1-c1ccn2c(-c3ccc(F)cc3C)nnc2c1 [Example 15, N-cyclopropyl-3-(3-(4-fluoro-2-methylphenyl)[1,2,4]triazolo[4,3-a]pyridin-7-yl)-4-methylbenzamide]
IC50 (p38α): < 25 nM
IC50 (monocytes): 25 to 100 nM
IC50 (THP1 cells): < 25 nM

CCNC(=O)c1ccc(C)c(-c2ccn3c(-c4ccccc4Cl)nnc3c2)c1 [Example 52, 3-(3-(2-chlorophenyl)[1,2,4]triazolo[4,3-a]pyridin-7-yl)-N-ethyl-4-methylbenzamide]
IC50 (p38α): < 25 nM
IC50 (monocytes): 100 to 250 nM
IC50 (THP1 cells): 100 to 250 nM
